These results are taken from patent publication US11400085B2, “Method for preparing pharmaceutical composition for preventing or treating cognitive impairment-related disease and pharmaceutical composition for preventing or treating cognitive impairment-related disease prepared by the same” (priority 2018, dated 2022).

This data set can be described thus: Comparison of blood concentrations of donepezil after injection or oral administration. The class given is in vivo. The settings on record: beagle dog, orally administered.

As for donepezil, the blood concentration duration entry is “very short for about one day”.
